≈ marks a conversion by molar mass, not a printed value.

Holding throughout (assay type): cell-based
One assay deals with Klebs. pneu. Kind of assay: Minimal inhibitory concentration against Klebs. pneu.
The subject of another assay is Staph. aureus S18713. The assay is described as follows: Minimal inhibitory concentration against Staph. aureus S18713. Particulars: Staphylococcus aureus.
A further assay concerns Serr. marces. Kind of assay: Minimal inhibitory concentration against Serr. marces.
The test system of the next assay is Entero. cloacae. Kind of assay: Minimal inhibitory concentration against Entero. cloacae. Particulars: Enterobacter cloacae.
Assay [1] has as its system Pseudomonas aeruginosa #28. Kind of assay: Minimal inhibitory concentration against Pseudomonas aeruginosa #28.

Usually MIC stands for the lowest concentration that inhibits growth of the organism. For the molecule `CC1(C)S[C@@H]2[C@H](NC(=O)[C@H](NC(=O)c3ccc(-c4ccc(NC(=O)CSCC#N)cc4)[nH]c3=O)c3ccc(O)cc3)C(=O)N2[C@H]1C(=O)O` [Example 9], the MIC with Klebs. pneu. is 6.3 µg/mL (≈ 9.12 µM); against Staph. aureus S18713, more than 50 µg/mL; in the assay on Serr. marces., 1.6 µg/mL (≈ 2.32 µM); against Entero. cloacae, 12.5 µg/mL (≈ 18.1 µM); in assay [1], 1.6 µg/mL (≈ 2.32 µM).

For the molecule `CC1(C)S[C@@H]2[C@H](NC(=O)[C@H](NC(=O)c3ccc(-c4ccc(NC(=O)Cc5ccccc5)cc4)[nH]c3=O)c3ccc(O)cc3)C(=O)N2[C@H]1C(=O)O` [Example 13, N-[6-[4-(Phenylacetylamino)phenyl]-1,2-dihydro-2-oxonicotinoyl]amoxicillin], the MIC against Klebs. pneu. was found to be 3.1 µg/mL (≈ 4.46 µM); against Staph. aureus S18713, 50 µg/mL (≈ 71.9 µM); in the assay on Serr. marces., 50 µg/mL (≈ 71.9 µM); against Entero. cloacae it was 1.6 µg/mL (≈ 2.3 µM); in assay [1], 1.6 µg/mL (≈ 2.3 µM).

Regarding `CC1(C)S[C@@H]2[C@H](NC(=O)[C@H](NC(=O)c3ccc(-c4ccc(NC(=O)C(F)(F)F)cc4)[nH]c3=O)c3ccccc3)C(=O)N2[C@H]1C(=O)O` [Example 3, N-[6-[4(Trifluoroacetylamino)phenyl]-1,2-dihydro-2-oxonicotinoyl]ampicillin], the MIC in the assay with Klebs. pneu. stood at 6.3 µg/mL (≈ 9.58 µM); against Staph. aureus S18713, 200 µg/mL (≈ 304 µM); with Serr. marces. it was 25 µg/mL (≈ 38 µM); with Entero. cloacae, 3.1 µg/mL (≈ 4.71 µM); in assay [1], 6.3 µg/mL (≈ 9.58 µM).

`CC(=O)Nc1cccc(-c2ccc(C(=O)N[C@@H](C(=O)N[C@@H]3C(=O)N4[C@@H]3SC(C)(C)[C@@H]4C(=O)O)c3ccccc3)c(=O)[nH]2)c1` [Example 15, N-[6-[3-(Acetylamino)phenyl]-1,2-dihydro-2-oxonicotinoyl]ampicillin]: the MIC is 3.1 µg/mL (≈ 5.14 µM) in the assay with Klebs. pneu.; more than 200 µg/mL against Staph. aureus S18713; 12.5 µg/mL (≈ 20.7 µM) against Serr. marces.; 6.3 µg/mL (≈ 10.4 µM) in the assay on Entero. cloacae; 6.3 µg/mL (≈ 10.4 µM) in assay [1].

Take `CC(=O)C(=O)Nc1ccc(-c2ccc(C(=O)N[C@@H](C(=O)N[C@@H]3C(=O)N4[C@@H]3SC(C)(C)[C@@H]4C(=O)O)c3ccc(O)cc3)c(=O)[nH]2)cc1` [Example 7, N-[6-[4-(1,2-Dioxopropylamino)phenyl]-1,2-dihydro-2-oxonicotinoyl]amoxicillin]: the MIC in the assay with Klebs. pneu. came out at 12.5 µg/mL (≈ 19.3 µM); with Staph. aureus S18713, 25 µg/mL (≈ 38.6 µM); in the assay on Serr. marces. it was 3.1 µg/mL (≈ 4.79 µM); in the assay on Entero. cloacae, 3.1 µg/mL (≈ 4.79 µM); in assay [1], 1.6 µg/mL (≈ 2.47 µM).

Consider `CC(=O)Nc1ccc(-c2ccc(C(=O)N[C@@H](C(=O)N[C@@H]3C(=O)N4[C@@H]3SC(C)(C)[C@@H]4C(=O)O)c3ccc(O)cc3)c(=O)[nH]2)cc1` [Example 2, N-[6-[4-(acetylamino)phenyl]-1,2-dihydro-2-oxonicotinoyl]amoxicillin], for which the MIC against Klebs. pneu. worked out at 12.5 µg/mL (≈ 20.2 µM); in the assay on Staph. aureus S18713, 200 µg/mL (≈ 323 µM); against Serr. marces., 25 µg/mL (≈ 40.3 µM); in the assay with Entero. cloacae, 6.3 µg/mL (≈ 10.2 µM); in assay [1], 3.1 µg/mL (≈ 5 µM).

`CC1(C)S[C@@H]2[C@H](NC(=O)[C@H](NC(=O)c3ccc(-c4ccc(NC(=O)OCc5ccccc5)cc4)[nH]c3=O)c3ccccc3)C(=O)N2[C@H]1C(=O)O` [Example 11, N-[6-[4-(Benzyloxycarbonylamino)phenyl]-1,2-dihydro-2-oxonicotinoyl]ampicillin]: the MIC against Klebs. pneu. is 0.8 µg/mL (≈ 1.15 µM); in the assay on Staph. aureus S18713 it was 50 µg/mL (≈ 71.9 µM); in the assay with Serr. marces., 12.5 µg/mL (≈ 18 µM); against Entero. cloacae, 6.3 µg/mL (≈ 9.05 µM); in assay [1], 1.6 µg/mL (≈ 2.3 µM).

Regarding `CC1(C)S[C@@H]2[C@H](NC(=O)[C@H](NC(=O)c3ccc(-c4ccc(NC(=O)Cc5nn[nH]n5)cc4)[nH]c3=O)c3ccc(O)cc3)C(=O)N2[C@H]1C(=O)O` [Example 6], the MIC in the assay with Klebs. pneu. is 12.5 µg/mL (≈ 18.2 µM); with Staph. aureus S18713, more than 50 µg/mL; against Serr. marces., 1.6 µg/mL (≈ 2.33 µM); against Entero. cloacae, 1.6 µg/mL (≈ 2.33 µM); in assay [1], 3.1 µg/mL (≈ 4.51 µM).

As to `COC(=O)Nc1ccc(-c2ccc(C(=O)N[C@@H](C(=O)N[C@@H]3C(=O)N4[C@@H]3SC(C)(C)[C@@H]4C(=O)O)c3ccc(O)cc3)c(=O)[nH]2)cc1` [Example 12, N-[6-[4-(Methoxycarbonylamino)phenyl]-1,2-dihydro-2-oxonicotinoyl]amoxicillin], the MIC with Klebs. pneu. worked out at 3.1 µg/mL (≈ 4.88 µM); in the assay with Staph. aureus S18713, 100 µg/mL (≈ 157 µM); in the assay with Serr. marces., 25 µg/mL (≈ 39.3 µM); against Entero. cloacae, 1.6 µg/mL (≈ 2.52 µM); in assay [1] it was 1.6 µg/mL (≈ 2.52 µM).

Regarding `CCNC(=O)Nc1ccc(-c2ccc(C(=O)N[C@@H](C(=O)N[C@@H]3C(=O)N4[C@@H]3SC(C)(C)[C@@H]4C(=O)O)c3ccc(O)cc3)c(=O)[nH]2)cc1` [Example 14, N-[6-[4-(N-Ethylcarbamoylamino)phenyl]-1,2-dihydro-2-oxonicotinoyl]amoxicillin], the MIC in the assay on Klebs. pneu. worked out at 6.3 µg/mL (≈ 9.71 µM); against Staph. aureus S18713 it was 50 µg/mL (≈ 77.1 µM); in the assay on Serr. marces. it was 0.8 µg/mL (≈ 1.23 µM); against Entero. cloacae it was 3.1 µg/mL (≈ 4.78 µM); in assay [1] it was 0.8 µg/mL (≈ 1.23 µM).

For `CC(=O)Nc1ccc(-c2ccc(C(=O)N[C@@H](C(=O)N[C@@H]3C(=O)N4[C@@H]3SC(C)(C)[C@@H]4C(=O)O)c3ccccc3)c(=O)[nH]2)cc1` [Example 1, N-[6-[4-(Acetylamino)phenyl]-1,2-dihydro-2-oxonicotinoyl]-ampicillin], the MIC stood at 6.3 µg/mL (≈ 10.4 µM) in the assay on Klebs. pneu.; 100 µg/mL (≈ 166 µM) against Staph. aureus S18713; 25 µg/mL (≈ 41.4 µM) against Serr. marces.; 12.5 µg/mL (≈ 20.7 µM) with Entero. cloacae; 3.1 µg/mL (≈ 5.14 µM) in assay [1].

As to `CC1(C)S[C@@H]2[C@H](NC(=O)[C@H](NC(=O)c3ccc(-c4ccc(NC(=O)CC#N)cc4)[nH]c3=O)c3ccc(O)cc3)C(=O)N2[C@H]1C(=O)O` [Example 5], the MIC in the assay on Klebs. pneu. was 3.1 µg/mL (≈ 4.81 µM); in the assay with Staph. aureus S18713, 100 µg/mL (≈ 155 µM); with Serr. marces., 200 µg/mL (≈ 310 µM); against Entero. cloacae, 1.6 µg/mL (≈ 2.48 µM); in assay [1] it was 1.6 µg/mL (≈ 2.48 µM).

On to `CCOC(=O)C(=O)Nc1ccc(-c2ccc(C(=O)N[C@@H](C(=O)N[C@@H]3C(=O)N4[C@@H]3SC(C)(C)[C@@H]4C(=O)O)c3ccc(O)cc3)c(=O)[nH]2)cc1` [Example 10, N-[6-[4-[(2-Ethoxy-1,2-dioxoethyl)amino]phenyl]-1,2-dihydro-2-oxonicotinoyl]amoxicillin], for which the MIC against Klebs. pneu. is 6.3 µg/mL (≈ 9.3 µM); in the assay with Staph. aureus S18713 it was 50 µg/mL (≈ 73.8 µM); with Serr. marces., 200 µg/mL (≈ 295 µM); in the assay with Entero. cloacae, 1.6 µg/mL (≈ 2.36 µM); in assay [1] it was 6.3 µg/mL (≈ 9.3 µM).

For the molecule `CC1(C)S[C@@H]2[C@H](NC(=O)[C@H](NC(=O)c3ccc(-c4ccc(NC(=O)CSCC(F)(F)F)cc4)[nH]c3=O)c3ccc(O)cc3)C(=O)N2[C@H]1C(=O)O` [Example 8], the MIC is 3.1 µg/mL (≈ 4.22 µM) against Klebs. pneu.; more than 50 µg/mL against Staph. aureus S18713; 0.4 µg/mL (≈ 0.545 µM) in the assay on Serr. marces.; 6.3 µg/mL (≈ 8.59 µM) against Entero. cloacae; 0.8 µg/mL (≈ 1.09 µM) in assay [1].

Regarding `CC1(C)S[C@@H]2[C@H](NC(=O)[C@H](NC(=O)c3ccc(-c4ccc(NC(=O)C(F)(F)F)cc4)[nH]c3=O)c3ccc(O)cc3)C(=O)N2[C@H]1C(=O)O` [Example 4, N-[6-[4-(Trifluoroacetylamino)phenyl]-1,2-dihydro-2-oxonicotinoyl]amoxicillin], the MIC came to 3.1 µg/mL (≈ 4.6 µM) in the assay with Klebs. pneu.; 100 µg/mL (≈ 148 µM) in the assay with Staph. aureus S18713; 100 µg/mL (≈ 148 µM) in the assay with Serr. marces.; 3.1 µg/mL (≈ 4.6 µM) against Entero. cloacae; 1.6 µg/mL (≈ 2.38 µM) in assay [1].

For the origin of these results see patent publication US4315858A, “Antibacterial amide compounds” (Warner-Lambert Company, priority 1980, dated 1982).
